{
  "source": "patent US9308238B2",
  "about": "“Compositions and methods for modulating EMT and uses thereof” (Whitehead Institute for Biomedical Research, priority 2010, dated 2016)",
  "molecules": {"B1": {"name": "DKK1: Recombinant human DKK1 protein (R&D Systems), secreted antagonist of canonical Wnt pathway (protein, UniProt O94907 32-266, looked up)", "Dickkopf-related protein 1": "TLNSVLNSNAIKNLPPPLGGAAGHPGSAVSAAPGILYPGGNKYQTIDNYQPYPCAEDEECGTDEYCASPTRGGDAGVQICLACRKRRKRCMRHAMCCPGNYCKNGICVSSDQNHFRGEIEETITESFGNDHSTLDGYSRRTTLSSKMYHTKGQEGSVCLRSSDCASGLCCARHFWSKICKPVLKEGQVCTKHRRKGSHGLEIFQRCYCGEGLSCRIQKDHHQASNSSRLHTCQRH"}},
  "key": {"HTwist and MSP cells [1]": {"system": "HTwist and MSP cells", "test": "Boyden chamber migration assay, HTwist and MSP cells", "assay_type": "cell-based, human", "conditions": "for effect on migration: 10 μM, to a similar extent as added BMP4 protein", "protocol": "(§1) FIGS. 3A-3E. Autocrine Signaling controls migration and mammosphere formation.\nFIGS. 10A-10E. […] (FIG. 10C) Mammosphere assay: HTwist cells were treated daily during mammosphere formation (5 days) with proteins as described in (B); *control vs. single treatment, p<1×10^−5, **single vs. double-treatment, p<0.01, n(mammospheres)/1000 cells, n=6, (FIG. 10D) Migration Assay: HTwist and MSP cells were seeded into Boyden Chambers in the presence of TGF-beta Receptor I inhibitors A83-01 and SB431542 (SB43, both at 10 μM). (FIG. 10E) Mammosphere Assay: HTwist and MSP were treated daily during mammosphere formation (5 days) with BMP4 (0.5 μg/ml), SB431542 (10 μM) or a combination of both, n(mammospheres)/1000 cells, n=6.\nMigration and invasion assays. For migration assays, 2×10^4 cells were seeded into 24-well cell culture inserts with 8-μm pores (Boyden Chambers, BD Falcon). For invasion assays, matrigel-coated inserts (BD Falcon) were used. After 12-48 hr, the cells on the upper surface of the filters were removed with a cotton swab. For visualization, cells on lower filter surfaces were fixed and stained with a Diff-Quick staining kit (Dade Behring)."}, "HTwist and MSP cells [2]": {"system": "HTwist and MSP cells", "test": "Mammosphere assay, HTwist and MSP cells", "assay_type": "cell-based, human", "conditions": "10 μM; to a similar extent as added BMP4 protein", "protocol": "FIGS. 10A-10E. […] (FIG. 10E) Mammosphere Assay: HTwist and MSP were treated daily during mammosphere formation (5 days) with BMP4 (0.5 μg/ml), SB431542 (10 μM) or a combination of both, n(mammospheres)/1000 cells, n=6.\n(§2) Mammosphere and tumorsphere assay. Assays were performed as previously described with modifications (Dontu et al., 2003): 1000 cells/well were seeded in 96-well ultra-low adhesion plates (Corning) in MEGM medium containing 1.3% methylcellulose (Stem Cell Technologies) supplemented with 20 ng/ml EGF, 10 ng/ml bFGF (both Sigma) and B27 (Gibco). Primary spheres were dissociated by trypsinization and replated for secondary sphere formation after a period of 5-7 days."}, "GSK3": {"molecular_target": "GSK3", "conditions": "ATP-competitive manner; cited from earlier work"}, "26 other kinases": {"system": "26 other kinases", "conditions": "cited from earlier work"}, "PKA": {"system": "PKA", "conditions": "at >100 μM; cited from earlier work"}, "CK-II": {"system": "CK-II", "conditions": "at >100 μM; cited from earlier work"}, "Cdk-1/cyclin B": {"system": "Cdk-1/cyclin B", "conditions": "at >100 μM; cited from earlier work"}, "PKC": {"system": "PKC", "conditions": "at >100 μM; cited from earlier work"}, "HMLE^24+ cells": {"system": "HMLE^24+ cells", "test": "Boyden chamber migration assay, HMLE^24+ cells", "assay_type": "cell-based, human", "conditions": "0.5 μg/ml in growth medium", "protocol": "as §1\nFIGS. 5A-5H. Concomitant stimulation of Wnt and TGF-beta pathways allows HMLE^24+ cells to enter into a mesenchymal and SC-like state. (FIG. 5A) RT-PCR: N-Cadherin, Zeb1 and Zeb2, L32 was loading control, n=3. Prior RNA isolation, HMLE^24+-shGFP or -shSFRP1 (stable knockdown of SFRP1, FIG. 12A) cells were treated for 3 days with daily doses of indicated factors: anti-DKK1 antibody (10 μg/ml), anti-E-Cadherin antibody (1 μg/ml), TGF-beta 1 (5 ng/ml), Wnt5a (250 ng/ml), (FIG. 5B) Brightfield microscopy: images of control, TGF-beta- and iEMT-cocktail treated HMLE^24+ cells after 14 days of treatment as indicated (see also FIG. 12D). (FIG. 5C) RT-PCR: Zeb1, Zeb2, E-Cadherin and N-Cadherin, L32 was loading control, n=3. After 14 day treatment, cells were expanded in absence of further stimulation for 4 passages. Shown are PBS-treated control HMLE^24+-shGFP and HMLE^24+-shSFRP1 cells, two HMLE^24+-shGFP cultures treated with TGF-beta 1 (TGF-β-a and -b), two HMLE^24+-shSFRP1 cultures treated with the iEMT-cocktail (iEMT-a and -b). (FIG. 5D) Immunoblot: EMT markers and associated autocrine pathways, cells generated as described in (C). (FIG. 5E) Migration (Boyden Chamber Assay) and Mammosphere Assay: cells generated as indicated in (C), *control vs. TGF-beta treatment, p<1×10^−4, **control vs. iEMT-treatment, p<1×10^−9, n(migration)=3, n(mammospheres)/1000 cells, n=7. (FIG. 5F) Flow cytometry: CD44 and CD24 cell-surface marker expression in control, TGF-beta-a and iEMT-a cells generated as described in (C). (FIG. 5G) Lung metastasis: cells expanded for 8 passages after cessation of treatment as described in (C) were transformed with RAS; 1.0×10^5 cells were injected into the mammary fat pads of mice; GFP-labeled metastases on the surface of the lungs were quantified; *control vs. all other groups, p<0.05, n=5 mice/group. […]"}, "MSP cells": {"system": "MSP cells", "test": "Mammosphere assay, MSP cells", "assay_type": "cell-based, human", "conditions": "added daily for 5 days (FIG. 3D)", "protocol": "as §1, §2"}},
  "data": [
    {"molecule": "Cc1cccc(-c2nn(C(=S)Nc3ccccc3)cc2-c2ccnc3ccccc23)n1", "note": "[A83-01, reference compound]", "values": [
      {"measurement": "effect on migration", "setting": "HTwist and MSP cells [1]", "result": "attenuated"},
      {"measurement": "effect on mammosphere formation", "setting": "HTwist and MSP cells [2]", "result": "attenuated"}
    ]},
    {"molecule": "COc1ccc(CNC(=O)Nc2ncc([N+](=O)[O-])s2)cc1", "note": "[AR-A014418, N-(4-Methoxybenzyl)-N′-(5-nitro-1,3-thiazol-2-yl)urea]", "values": [
      {"measurement": "Ki", "setting": "GSK3", "result": "[…]"},
      {"measurement": "inhibition of 26 other kinases", "setting": "26 other kinases", "result": "does not significantly inhibit"}
    ]},
    {"molecule": "NC(=O)c1ccc(-c2nc(-c3ccc4c(c3)OCO4)c(-c3ccccn3)[nH]2)cc1", "note": "[SB431542, reference compound]", "values": [
      {"measurement": "effect on migration", "setting": "HTwist and MSP cells [1]", "result": "attenuated"},
      {"measurement": "effect on mammosphere formation", "setting": "HTwist and MSP cells [2]", "result": "attenuated"}
    ]},
    {"molecule": "Cn1sc(=O)n(Cc2ccccc2)c1=O", "note": "[TDZD-8, 4-Benzyl-2-methyl-1,2,4-thiadiazolidine-3,5-dione]", "values": [
      {"measurement": "inhibition of PKA", "setting": "PKA", "result": "does not inhibit"},
      {"measurement": "inhibition of CK-II", "setting": "CK-II", "result": "does not inhibit"},
      {"measurement": "inhibition of Cdk-1/cyclin B", "setting": "Cdk-1/cyclin B", "result": "does not inhibit"},
      {"measurement": "inhibition of PKC", "setting": "PKC", "result": "does not inhibit"}
    ]},
    {"molecule": "B1", "values": [
      {"measurement": "motility of HMLE^24+ cells upon addition of protein", "setting": "HMLE^24+ cells", "result": "not further reduced"},
      {"measurement": "reduction of migration", "setting": "HTwist and MSP cells [1]; at the highest concentration", "result": 10, "unit": "fold"},
      {"measurement": "reduction of primary mammosphere number", "setting": "MSP cells", "result": 20, "unit": "%"}
    ]}
  ]
}
